In patent US7915291B2, “Hepatitis C virus inhibitors” (Bristol-Myers Squibb Company, priority 2002, dated 2011):
Like-named read-outs stand apart in the source and are kept apart here.

Tests used:
[1] = system: HCV replicon in Huh7 cells; assay: HCV replicon cell-based assay; parameters: species or system HCV strain 1B; settings: Hepatitis C virus, Huh-7; HCV replicon, Huh7 cells; read-out: EC50 range
[2] = target: HCV NS3/4A protease complex, BMS strain (UniProt P27958, C1454S/C1711G, species not given/STRAIN_BMS); assay: Recombinant HCV NS3/4A protease complex FRET peptide assay (BMS strain); format: biochemical, HCV genotype 1a
Procedure, shortened: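 Percent inhibition taken from the linear-range fluorescence slope relative to uninhibited control, read kinetically for about 15 min at 25° C. Enzyme (2-3 nM, BMS NS3/4A complex, lysine-tailed, Ni-NTA purified) met compound for 1 min before 2 μM FRET depsipeptide substrate started cleavage.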

[3] = NS3/4A BMS strain; read-out: IC50 range
[4] = read-out: IC50 range; NS3/4A BMS strain

Structure (SMILES) | EC50 [1] [nM] | IC50 [2, 3] [nM] | IC50 [2, 4] [nM]
C=C[C@@H]1C[C@]1(NC(=O)[C@@H]1C[C@@H](Oc2nccc3ccccc23)CN1C(=O)[C@@H](NC(=O)OCCCCCC)C(C)(C)C)C(=O)NS(=O)(=O)C1CC1 [Compound 129] | 100 to 1000 | 100 to 1000 | 
C=C[C@@H]1C[C@]1(NC(=O)[C@@H]1C[C@@H](Oc2nccc3cc(OC)ccc23)CN1C(=O)[C@@H](NC(=O)N[C@H](C(=O)OCc1ccccc1)C(C)C)C(C)(C)C)C(=O)NS(=O)(=O)C1CC1 [Compound 150] | < 100 | < 100 | 
C=C[C@@H]1C[C@]1(NC(=O)[C@@H]1C[C@@H](Oc2ccnc3cc(OC)ccc23)CN1C(=O)[C@@H](NC(=O)OC(C)(C)C)C(C)C)C(=O)NS(=O)(=O)C1CC1 [Compound 378] | < 100 | < 100 | 
C=C[C@@H]1C[C@]1(NC(=O)[C@@H]1C[C@@H](Oc2nccc3c(OC)c(Cl)ccc23)CN1C(=O)[C@@H](NC(=O)OC(C)(C)C)C(C)(C)C)C(=O)NS(=O)(=O)C1CC1 [Compound 276] | < 100 | < 100 | 
C=CC1C[C@]1(NC(=O)[C@@H]1C[C@@H](Oc2nccc3cc(C(C)(C)C)ccc23)CN1C(=O)[C@@H](NC(=O)OC(C)(C)C)C(C)(C)C)C(=O)NS(=O)(=O)C1CC1 (stereo partly drawn) [Compound 191, BOCNH-P3(L-tert-BuGly)-P2[(4R)-(6-tert-butyl isoquinolin-1-oxo)-S-proline]-P1(1R,2S Vinyl Acca)-CONHSO2-Cyclopropane] | 100 to 1000 | < 100 | 
C=C[C@@H]1C[C@]1(NC(=O)[C@@H]1C[C@@H](Oc2nccc3cccc(C)c23)CN1C(=O)[C@@H](NC(=O)OC(C)(C)C)C(C)(C)C)C(=O)NS(=O)(=O)C1CC1 [Compound 263] | 100 to 1000 | 100 to 1000 | 
C=CC1C[C@]1(NC(=O)[C@@H]1C[C@@H](Oc2nc(-c3csc(N(CC)CC)n3)cc3cc(OC)ccc23)CN1C(=O)[C@@H](NC(=O)OC(C)(C)C)C(C)(C)C)C(=O)NS(=O)(=O)C1CC1 (stereo partly shown) [Compound 321] | 100 to 1000 | < 100 | 
C=C[C@@H]1C[C@]1(NC(=O)[C@@H]1C[C@@H](Oc2nccc3cc(OC)c(F)cc23)CN1C(=O)[C@@H](NC(=O)OC(C)(C)C)C(C)(C)C)C(=O)NS(=O)(=O)C1CC1 [Compound 261] | < 100 | < 100 | 
C=C[C@@H]1C[C@]1(NC(=O)[C@@H]1C[C@@H](Oc2ncc(Cl)c3ccccc23)CN1C(=O)[C@@H](NC(=O)OC(C)(C)C)C(C)(C)C)C(=O)NS(=O)(=O)C1CC1 [Compound 281] | < 100 | < 100 | 
CC[C@@H]1C[C@]1(NC(=O)[C@@H]1C[C@@H](Oc2nccc3c4c(ccc23)OC(F)(F)O4)CN1C(=O)[C@@H](NC(=O)OC(C)(C)C)C(C)(C)C)C(=O)NS(=O)(=O)C1CC1 [Compound 289] | 100 to 1000 | < 100 | 
C=C[C@@H]1C[C@]1(NC(=O)[C@@H]1CC(Oc2nccc3cc(OC)ccc23)CN1C(=O)[C@@H](NC(=O)C(CC)CC)C(C)(C)C)C(=O)NS(=O)(=O)C1CC1 (stereo partly shown) [Compound 57] | 100 to 1000 | < 100 | 
C=C[C@@H]1C[C@]1(NC(=O)[C@@H]1C[C@@H](Oc2ccnc(-c3ccccc3)c2)CN1C(=O)[C@@H](NC(=O)OC1CCCC1)C(C)(C)C)C(=O)NS(=O)(=O)C1CC1 [Compound 421] | 100 to 1000 | < 100 | 
C=C[C@@H]1C[C@]1(NC(=O)[C@@H]1C[C@@H](Oc2ccnc3cc(OC)ccc23)CN1C(=O)[C@@H](NC(=O)OC(C)(C)C)C(C)(C)C)C(=O)NS(=O)(=O)C1CCC1 [Compound 374, BOCNH-P3(L-t -BuGly)-P2[(4R)-(7-methoxyquinoline-4-oxo)-S-proline]-P1(1R,2S Vinyl Acca)-CONHSO2-Cyclobutane] | 100 to 1000 | < 100 | 
C=CC1C[C@]1(NC(=O)[C@@H]1C[C@@H](Nc2nccc3ccccc23)CN1C(=O)[C@@H](NC(=O)OC(C)(C)C)C(C)(C)C)C(=O)NS(=O)(=O)C1CC1 (stereo partly shown) [Compound 357] | 100 to 1000 |  | < 100
C=C[C@@H]1C[C@]1(NC(=O)[C@@H]1C[C@@H](Oc2nccc3cc(OC)ccc23)CN1C(=O)[C@@H](NC(=O)OC(C)(C)C)[C@H](C)OC)C(=O)NS(=O)(=O)C1CC1 [Compound 94] | < 100 | < 100 | 
C=C[C@@H]1C[C@]1(NC(=O)[C@@H]1C[C@@H](Oc2nccc3cc(OC)ccc23)CN1C(=O)[C@@H](NC(=O)OC1CCCC1)C(C)(C)C)C(=O)NS(=O)(=O)C1CCC1 [Compound 380] | 100 to 1000 | < 100 | 
CC[C@@H]1C[C@]1(NC(=O)[C@@H]1C[C@@H](Oc2ncc(OC)c3ccccc23)CN1C(=O)[C@@H](NC(=O)OC(C)(C)C)C(C)(C)C)C(=O)NS(=O)(=O)C1CC1 [Compound 291] | < 100 | < 100 | 
C=C[C@@H]1C[C@]1(NC(=O)[C@@H]1C[C@@H](Oc2ccnc(-c3ccoc3)c2)CN1C(=O)[C@@H](NC(=O)OC1CCCC1)C(C)(C)C)C(=O)NS(=O)(=O)C1CC1 [Compound 426] | 100 to 1000 | < 100 | 

Structure (SMILES) | EC50 [1] [nM] | IC50 [2, 3] [nM] | IC50 [2, 4] [nM]
C=C[C@@H]1C[C@]1(NC(=O)[C@@H]1C[C@@H](Oc2cc(-c3ccccc3)nc(-c3ccc(OC)cc3)c2)CN1C(=O)[C@@H](NC(=O)OC(C)(C)C)C(C)(C)C)C(=O)NS(=O)(=O)C1CC1 [Compound 414] | < 100 | < 100 | 
C=C[C@@H]1C[C@]1(NC(=O)[C@@H]1C[C@@H](Oc2nccc3cc(OC)c(Cl)cc23)CN1C(=O)[C@@H](NC(=O)OC(C)(C)C)C(C)(C)C)C(=O)NS(=O)(=O)C1CC1 [Compound 273] | < 100 | < 100 | 
C=C[C@@H]1C[C@]1(NC(=O)[C@@H]1C[C@@H](Oc2nccc3cc(OC)ccc23)CN1C(=O)[C@@H](NC(=O)NC(C)(C)CC)[C@H](C)OC)C(=O)NS(=O)(=O)C1CC1 [Compound 102] | < 100 | < 100 | 
C=C[C@@H]1C[C@]1(NC(=O)[C@@H]1C[C@@H](Oc2nc(Cl)cc3ccccc23)CN1C(=O)[C@@H](NC(=O)OC(C)(C)C)C(C)(C)C)C(=O)NS(=O)(=O)C1CC1 [Compound 24] | < 100 | < 100 | 
CC[C@@H]1C[C@]1(NC(=O)[C@@H]1C[C@@H](Oc2nccc3c4c(ccc23)OCCO4)CN1C(=O)[C@@H](NC(=O)OC(C)(C)C)C(C)(C)C)C(=O)NS(=O)(=O)C1CC1 [Compound 290] | < 100 | < 100 | 
C=C[C@@H]1C[C@]1(NC(=O)[C@@H]1C[C@@H](Oc2nccc3ccccc23)CN1C(=O)[C@@H](NC(=O)OC(C)(C)C)C(C)(C)C)C(=O)NS(=O)(=O)C1CC1 [Compound 23] | < 100 | < 100 | 
C=C[C@@H]1C[C@]1(NC(=O)[C@@H]1CC(Oc2nccc3cc(OC)ccc23)CN1C(=O)[C@@H](NC(=O)C1C2CC1C2)C(C)(C)C)C(=O)NS(=O)(=O)C1CC1 (stereo partly shown) [Compound 62] | < 100 | < 100 | 
C=C[C@@H]1C[C@]1(NC(=O)[C@@H]1C[C@@H](Oc2nccc3c(N4CCOCC4)cccc23)CN1C(=O)[C@@H](NC(=O)OC(C)(C)C)C(C)(C)C)C(=O)NS(=O)(=O)C1CC1 [Compound 271] | 100 to 1000 | < 100 | 
C=CC1C[C@]1(NC(=O)[C@@H]1C[C@@H](Oc2nnc(OC)c3ccccc23)CN1C(=O)[C@@H](NC(=O)OC(C)(C)C)C(C)(C)C)C(=O)NS(=O)(=O)C1CC1 (stereo partly drawn) [Compound 201, BOCNH-P3(L-t-BuGly)-P2-[(4R)-(4-methoxyphthalazine-1-oxo)-S -proline]-P1(1R,2S VinylAcca)-CONHSO2Cyclopropane] | < 100 | < 100 | 
C=C[C@@H]1C[C@]1(NC(=O)[C@@H]1C[C@@H](Oc2nc(N3CCOCC3)cc3cc(OC)ccc23)CN1C(=O)[C@@H](NC(=O)OC(C)(C)C)C(C)(C)C)C(=O)NS(=O)(=O)C1CC1 [Compound 385] | < 100 | < 100 | 
C=C[C@@H]1C[C@]1(NC(=O)[C@@H]1C[C@@H](Oc2nccc3cc(OC)ccc23)CN1C(=O)[C@@H](NC(=O)OCC(C)(C)C)C(C)(C)C)C(=O)NS(=O)(=O)C1CCC1 [Compound 381] | 100 to 1000 |  | < 100
C=C[C@@H]1C[C@]1(NC(=O)[C@@H]1C[C@@H](Oc2nccc3c2ccc2ccoc23)CN1C(=O)[C@@H](NC(=O)OC(C)(C)C)C(C)(C)C)C(=O)NS(=O)(=O)C1CC1 [Compound 266] | < 100 | < 100 | 
C=CC1C[C@]1(NC(=O)[C@@H]1C[C@@H](Oc2nc(-c3ccc(N(C)C)cc3)cc3cc(OC)ccc23)CN1C(=O)[C@@H](NC(=O)OC(C)(C)C)C(C)(C)C)C(=O)NS(=O)(=O)C1CC1 (stereo partly shown) [Compound 326] | < 100 | < 100 | 
C=C[C@@H]1C[C@]1(NC(=O)[C@@H]1C[C@@H](Oc2cc(C)nc(-c3cccs3)c2)CN1C(=O)[C@@H](NC(=O)OC(C)(C)C)C(C)(C)C)C(=O)NS(=O)(=O)C1CC1 [Compound 438] | 100 to 1000 | < 100 | 
C=C[C@@H]1C[C@]1(NC(=O)[C@@H]1C[C@@H](Oc2cncc(-c3ccccc3)c2)CN1C(=O)[C@@H](NC(=O)OC(C)(C)C)C(C)(C)C)C(=O)NS(=O)(=O)C1CC1 [Compound 420] | 100 to 1000 | < 100 | 
C=CC1C[C@]1(NC(=O)[C@@H]1C[C@@H](Oc2ccnc3cc(C(F)(F)F)ccc23)CN1C(=O)[C@@H](NC(=O)OC(C)(C)C)C(C)(C)C)C(=O)NS(=O)(=O)C1CC1 (stereo partly drawn) [Compound 185, BOCNH-P3(L-tert-BuGly)-P2[(4R)-(7-trifluoromethyl quinolin-4-oxo)-S-proline]-P1(1R,2S Vinyl Acca)-CONHSO2-Cyclopropane] | < 100 | < 100 | 
C=CC1C[C@]1(NC(=O)[C@@H]1C[C@@H](Oc2nccc(-c3nccs3)n2)CN1C(=O)[C@@H](NC(=O)CC1CC1)C(C)(C)C)C(=O)NS(=O)(=O)C1CC1 (stereo partly shown) [Compound 340] | 10000 to 100000 | < 100 | 
